Tests used:
B-Raf V600E = B-Raf V600E (Homo sapiens, UniProt P15056, V600E); assay: B-Raf V600E biochemical kinase inhibition (AlphaScreen, biotin-MEK1 substrate); details: 100 μM ATP
Method: (§1) Compounds to be tested are diluted in dimethyl sulfoxide to a concentration of 0.1 mM. These are serially diluted 15 μL into 30 μL of dimethyl sulfoxide seven times in 96 well plates for a total of 8 dilution points, and for each dilution point 1 μL is added to a well of an assay plate. […] The reaction is started with addition of 10 μL of 200 μM ATP (i.e. final 100 μM ATP). […] The plates are incubated for 3 hours at room temperature and read on Envision reader (Perkin Elmer). […] The signal vs. compound concentration is used to determine the IC50.

[1] = test system: COLO205 colon adenocarcinoma cells (B-Raf V600E); assay: COLO205 cell growth inhibition (ATPlite); format: cell-based; details: Homo sapiens, COLO 205, 72 h; COLO205, 3 days incubation
Method: (§2) Compounds are assessed in a variety of cell based assays. For example human cell lines with B-Raf V600E mutation (A375 melanoma, SKMEL3 melanoma, and COL0205 colon adenocarcinoma), as well as tumorigenic cell lines with wild-type B-RAF (SW620 colon adenocarcinoma) or with Ras mutations (SKMEL2 melanoma and IPC298 melanoma). Similar assays may be used to assess additional tumorigenic cell lines with Ras mutations, including, but not limited to, M202, M207, M243, M244, M296, S117, HCT116, HCT15, DLD1, MiaPaCa, A549, NCI-H23, NCI-H460, HOP62, MDA-MB231, Hs-578T, HL60, MOLT-4, and CCRF-CEM.
(§3) On day 1, cells are counted, then centrifuged in a conical tube for 5 minutes at 1000 rpm. The supernatant is removed and cells are re-suspended as follows: • SW620 (ATCC catalog #CCL-27): resuspend in Leibovitz's L-15 medium, 2 mM L-glutamine, 10% fetal bovine serum to 6×10^4 cells/mL. • A375 (ATCC catalog #CRL-1619): resuspend in Dulbecco's modified Eagle's medium, 4 mM L-glutamine, 4.5 g/L D-glucose, 10% fetal bovine serum to 6×10^4 cells/mL. • COL0205 (ATCC catalog #CCL-222): resuspend in RPMI 1640, 2 mM L-glutamine, 1.5 g/L sodium bicarbonate, 4.5 g/L D-glucose, 10 mM HEPES, 1.0 mM sodium pyruvate, 10% fetal bovine serum to 6×10^4 cells/mL. • SKMEL2 (ATCC catalog #HTB-68): resuspend in Minimum Eagle essential medium, 2 mM L-glutamine, 1.5 g/L sodium bicarbonate, 0.1 mM non-essential amino acids, 1.0 mM sodium pyruvate, 10% fetal bovine serum to 6×10^4 cells/mL. • SKMEL3 (ATCC catalog #HTB-69): resuspend in McCoy's 5A medium, 1.5 mM L-glutamine, 15% fetal bovine serum to 6×10^4 cells/mL. • IPC298 (DSMZ catalog #ACC 251): resuspend in RPMI 1640, 2 mM L-glutamine, 10% fetal bovine serum to 6×10^4 cells/mL.
(§4) The cells are plated, 50 μL in each well of a 96-well dish (Corning 3610) and incubated at 37° C. in 5% CO2 overnight, cells plated to a final concentration of cells as follows:
(§5) On day 2, compound at a maximum concentration of 5 mM is serially diluted 1:3 for a total of 8 point titration with DMSO as a control. A 1 μL aliquot of each dilution point and control is added to 249 μL growth media and 50 μL is added to a well containing cells, providing 10 μM compound at the maximum concentration point. The cells are incubated for 3 days at 37° C. in 5% CO2.
(§6) On day 5, ATPlite 1 step Luminescence Assay System (Perkin Elmer #6016739) is brought to room temperature along with the cell cultures. ATPlite is added 25 μL to each well, shake for 2 minutes, and the cells are incubated at room temperature for 10 minutes, then luminescence is read on Safire reader. The measured luminescence correlates directly with cell number, such that the reading as a function of compound concentration is used to determine the IC50 value.
(§7) It is understood that the results of these assays may vary as assay conditions are varied. Inhibition levels determined under the conditions described herein represent a relative activity for the compounds tested under the specific conditions employed. The cell based assays are likely to show variability due to the complexity of the system and the sensitivity thereof to any changes in the assay conditions. […] Results for compounds that are tested and show substantially no inhibition below the highest tested concentration are represented as “-” in the tables below. In some instances, the compounds were not tested in all of the assays, or assay results were not valid, as indicated by NA in the tables below.

[2] = test system: SKMEL2 melanoma cells (Ras mutation); assay: SKMEL2 cell growth inhibition (ATPlite); format: cell-based; details: Homo sapiens, SK-MEL-2, 72 h; SKMEL2, 3 days incubation
Method: as §2, §3, §4
SKMEL2: 2,000 cells per well.
as §5, §6, §7

[3] = test system: SW620 colon adenocarcinoma cells (wild-type B-RAF); assay: SW620 cell growth inhibition (ATPlite); format: cell-based; details: Homo sapiens, SW-620, 72 h; SW620, 3 days incubation
Method: as §2, §3, §4, §5, §6, §7

[4] = test system: A375 melanoma cells (B-Raf V600E); assay: A375 cell growth inhibition (ATPlite); format: cell-based; details: Homo sapiens, A-375, 72 h; A375, 3 days incubation
Method: as §2, §3, §4, §5, §6, §7

B-Raf = B-Raf (Homo sapiens, UniProt P15056); assay: B-Raf biochemical kinase inhibition (AlphaScreen, biotin-MEK1 substrate); details: 100 μM ATP
Sequence of B-Raf (P15056 whole entry): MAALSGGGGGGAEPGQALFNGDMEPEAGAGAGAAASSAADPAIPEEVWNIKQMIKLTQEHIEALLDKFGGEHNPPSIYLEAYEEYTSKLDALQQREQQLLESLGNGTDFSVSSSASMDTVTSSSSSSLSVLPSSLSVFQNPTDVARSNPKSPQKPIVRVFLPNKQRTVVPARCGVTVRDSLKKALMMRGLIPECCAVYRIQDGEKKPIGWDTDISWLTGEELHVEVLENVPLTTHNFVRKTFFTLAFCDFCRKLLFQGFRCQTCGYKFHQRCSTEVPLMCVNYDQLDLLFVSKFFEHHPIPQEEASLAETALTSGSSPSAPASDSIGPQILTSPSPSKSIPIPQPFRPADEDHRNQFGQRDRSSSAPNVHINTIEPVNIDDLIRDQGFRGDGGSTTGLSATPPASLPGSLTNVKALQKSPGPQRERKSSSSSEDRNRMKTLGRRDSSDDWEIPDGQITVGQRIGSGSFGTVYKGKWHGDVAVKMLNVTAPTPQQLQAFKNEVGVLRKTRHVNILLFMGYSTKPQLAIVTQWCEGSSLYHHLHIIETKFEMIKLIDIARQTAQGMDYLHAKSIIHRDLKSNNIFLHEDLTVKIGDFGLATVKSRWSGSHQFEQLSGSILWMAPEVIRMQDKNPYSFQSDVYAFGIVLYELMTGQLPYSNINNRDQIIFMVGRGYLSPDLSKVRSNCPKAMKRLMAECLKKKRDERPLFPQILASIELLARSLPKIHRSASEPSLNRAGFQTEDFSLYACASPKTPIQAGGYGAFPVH
Method: as §1

A-Raf = target: T1, A-Raf (Homo sapiens, UniProt P10398); assay: A-Raf biochemical kinase inhibition (AlphaScreen, biotin-MEK1 substrate); details: 100 μM ATP
T1 sequence (P10398 1-606): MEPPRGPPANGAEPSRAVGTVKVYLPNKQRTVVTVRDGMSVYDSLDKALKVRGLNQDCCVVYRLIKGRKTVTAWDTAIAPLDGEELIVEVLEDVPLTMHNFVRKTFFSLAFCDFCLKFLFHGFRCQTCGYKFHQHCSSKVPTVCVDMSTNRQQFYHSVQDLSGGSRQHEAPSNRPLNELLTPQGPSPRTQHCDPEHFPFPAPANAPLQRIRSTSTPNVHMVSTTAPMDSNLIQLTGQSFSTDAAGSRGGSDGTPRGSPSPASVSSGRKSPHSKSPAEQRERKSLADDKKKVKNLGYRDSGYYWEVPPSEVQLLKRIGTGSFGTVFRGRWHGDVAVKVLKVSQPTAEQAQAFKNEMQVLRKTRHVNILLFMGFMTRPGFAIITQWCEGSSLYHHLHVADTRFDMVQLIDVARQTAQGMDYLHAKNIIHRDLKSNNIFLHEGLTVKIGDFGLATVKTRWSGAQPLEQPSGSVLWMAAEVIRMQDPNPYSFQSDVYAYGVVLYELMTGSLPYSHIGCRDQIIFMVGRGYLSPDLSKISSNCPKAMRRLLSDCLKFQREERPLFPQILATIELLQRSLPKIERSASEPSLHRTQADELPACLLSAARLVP
Method: as §1

c-Raf-1 = c-Raf-1 (Homo sapiens, UniProt P04049); assay: c-Raf-1 biochemical kinase inhibition (AlphaScreen, biotin-MEK1 substrate); details: 100 μM ATP
Sequence of c-Raf-1 (P04049 whole entry): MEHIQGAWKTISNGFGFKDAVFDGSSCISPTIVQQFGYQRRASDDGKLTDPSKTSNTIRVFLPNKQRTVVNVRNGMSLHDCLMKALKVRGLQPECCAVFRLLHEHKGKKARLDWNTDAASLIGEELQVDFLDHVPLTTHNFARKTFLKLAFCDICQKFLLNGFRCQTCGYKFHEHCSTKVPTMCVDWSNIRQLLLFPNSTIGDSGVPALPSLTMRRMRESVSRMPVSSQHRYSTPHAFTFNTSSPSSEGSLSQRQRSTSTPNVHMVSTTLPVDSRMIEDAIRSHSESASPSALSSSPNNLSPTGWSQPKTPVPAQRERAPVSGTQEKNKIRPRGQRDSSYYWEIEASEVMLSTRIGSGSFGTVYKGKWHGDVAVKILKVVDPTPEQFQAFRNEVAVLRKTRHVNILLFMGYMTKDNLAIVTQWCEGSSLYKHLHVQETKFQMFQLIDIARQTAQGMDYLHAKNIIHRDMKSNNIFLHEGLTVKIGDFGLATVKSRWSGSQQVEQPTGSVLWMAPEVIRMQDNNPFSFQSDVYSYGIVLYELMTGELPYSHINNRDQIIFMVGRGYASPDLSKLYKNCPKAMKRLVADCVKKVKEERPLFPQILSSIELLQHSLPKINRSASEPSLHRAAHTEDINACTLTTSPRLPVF
Method: as §1

Sequence of B-Raf V600E (P15056 whole entry V600E): as the sequence (P15056 whole entry) above, with V600E counted along it

SMILES | IC50 (B-Raf V600E) | IC50 [1] | IC50 [2] | IC50 [3] | IC50 [4] | IC50 (B-Raf) | IC50 (A-Raf) | IC50 (c-Raf-1)
CCCS(=O)(=O)Nc1ccc(F)c(C(=O)c2c[nH]c3ncc(-c4ccc(NC(C)=O)cc4)cc23)c1F [P-2161, N-(4-{3-[2,6-Difluoro-3-(propane-1-sulfonylamino)-benzoyl]-1H-pyrrolo[2,3-b]pyridin-5-yl}-phenyl)-acetamide] | < 10 nM | < 1000 nM | < 10000 nM | > 10000 nM | < 1000 nM |  |  | 
CCCS(=O)(=O)Nc1ccc(F)c(C(=O)c2c[nH]c3ncc(-c4ccc(C)nc4F)cc23)c1F [P-2172, Propane-1-sulfonic acid {2,4-difluoro-3-[5-(2-fluoro-6-methyl-pyridin-3-yl)-1H-pyrrolo[2,3-b]pyridine-3-carbonyl]-phenyl}-amide] | < 100 nM | < 1000 nM | < 5000 nM | < 10000 nM | < 1000 nM | < 100 nM |  | 
CCCS(=O)(=O)Nc1ccc(F)c(C(=O)c2c[nH]c3ncc(-c4ccc(C(N)=O)nc4)cc23)c1F [P-2220, 5-{3-[2,6-Difluoro-3-(propane-1-sulfonylamino)-benzoyl]-1H-pyrrolo[2,3-b]pyridin-5-yl}-pyridine-2-carboxylic acid amide] | < 100 nM | < 1000 nM |  | > 10000 nM | < 1000 nM | < 100 nM | < 10 nM | < 100 nM
CCCS(=O)(=O)Nc1ccc(F)c(C(=O)c2c[nH]c3ncc(-c4ccc(O)nc4)cc23)c1F [P-2234, Propane-1-sulfonic acid {2,4-difluoro-3-[5-(6-hydroxy-pyridin-3-yl)-1H-pyrrolo[2,3-b]pyridine-3-carbonyl]-phenyl}-amide] | < 10 nM | < 5000 nM | > 10000 nM | > 10000 nM | < 5000 nM | < 10 nM | < 10 nM | < 10 nM
CC(C)CS(=O)(=O)Nc1ccc(F)c(C(=O)c2c[nH]c3ncc(-c4cnn(C)c4)cc23)c1F [P-2299, 2-Methyl-propane-1-sulfonic acid {2,4-difluoro-3-[5-(1-methyl-1H-pyrazol-4-yl)-1H-pyrrolo[2,3-b]pyridine-3-carbonyl]-phenyl}-amide] | < 10 nM | < 1000 nM | > 10000 nM | > 10000 nM | < 1000 nM | < 10 nM |  | 
